{
  "source": "patent EP0624575A1",
  "about": "“Substituted indoles and pharmaceutical compositions containing them” (ADIR ET COMPAGNIE, priority 1993, dated 1994)",
  "key": {"[1]": {"tested_on": "LDL natives", "assay": "Protection against LDL oxidation (Cu2+ system, 24 h incubation, FPLC analysis)", "assay_type": "biochemical", "settings": "10⁻⁵ M, 24 h incubation with native LDL and Cu²⁺ system, compared with probucol", "protocol": "La capacité des composés de l'invention à diminuer les proportions de LDL oxydées a été mesurée de la façon suivante : on réalise une incubation de 24 heures regroupant des LDL natives, un système Cu²⁺ générateur de radicaux libres et les composés à tester. Les résultats sont obtenus après analyse du milieu par une technique chromatographique haute performance : la FPLC (Fast Protein Liquid Chromatography). Le pouvoir protecteur du composé testé est déterminé après comparaison du chromatogramme obtenu avec celui du témoin positif de référence : le probucol. Il apparaît clairement que les composés de l'invention ont un pouvoir protecteur très important. A titre de comparaison, pour une concentration de 10⁻⁵ M, le niveau de protection obtenu pour les composés de l'invention dépasse celui du probucol."}, "[2]": {"tested_on": "agrégation plaquettaire (plasma de lapin enrichi en plaquettes)", "assay": "Anti-aggregant activity: platelet aggregation induced by sodium arachidonate", "assay_type": "cell-based", "settings": "aggregation induced by arachidonate de sodium (50 µg/ml); rabbit platelet-rich plasma; read-out: concentration minimale active", "protocol": "Dans cette étude, les composés de l'invention (100 µg/ml) ont été testés dans le but de quantifier leur pouvoir d'inhibition du maximum non-réversible d'agrégation plaquettaire (plasma de lapin enrichi en plaquettes) induite par l'arachidonate de sodium (50 µg/ml). Ainsi, la concentration minimale active pour le composé de l'exemple 17 est de 30 µM."}, "[3]": {"tested_on": "granulocytes de lapins", "assay": "Anti-inflammatory activity: leukotriene B4 release from A 23187-stimulated granulocytes (RIA)", "assay_type": "cell-based", "settings": "stimulation by calcium ionophore A 23187, mean of 3 independent measurements, versus control, read-out: pouvoir inhibiteur (leucotriènes B₄ libérés)", "excerpt": "Les mesures sont réalisées sur granulocytes de lapins. Les granulocytes isolés sont stimulés in vitro par l'ionophore calcique (A 23187). Les leucotriènes B₄ libérés dans le milieu extracellulaire sont mesurés par Radio Immuno Assay (RIA). Les résultats (moyennes de 3 mesures indépendantes) sont exprimés en pourcentage d'inhibition par rapport au témoin."}, "[4]": {"tested_on": "homogénats de cerveaux de rats", "assay": "Induced lipid peroxidation (Fe2+ - ascorbate) in rat brain homogenates (MDA)", "assay_type": "biochemical", "settings": "ratio versus probucol, induced peroxidation (Fe²⁺ - ascorbate)", "protocol": "L'action des composés utilisés selon l'invention, susceptibles de piéger les radicaux ·OH, a été étudiée d'une part, sur la peroxydation spontanée des lipides et d'autre part, sur la peroxydation induite par le système Fe²⁺ - ascorbate (10 µM - 250 µM), et ce, sur des homogénats de cerveaux de rats.\nLors de la mesure de la peroxydation lipidique spontanée, les homogénats de cerveau de rats sont placés en présence ou en absence des composés à tester durant 60 minutes à 37°C. La réaction est arrêtée à 0°C et le dosage du malondialdéhyde est effectué à l'aide d'acide thiobarbiturique. La peroxydation lipidique est déterminée par les substances réagissant avec l'acide thiobarbiturique exprimées en nanomoles de malondialdéhyde (MDA). Les concentrations des composés testés inhibant de 50 % la peroxydation du substrat sont calculées. Il est apparu que les composés de formule (I) utilisés selon l'invention possèdent une activité antiperoxydante particulièrement intense puisqu'ils possèdent une activité antiperoxydante nettement plus importante que le probucol et la vitamine E, qui est l'antioxydant naturel de l'organisme humain.\nLors de la mesure de la peroxydation lipidique induite, la méthodologie est identique à celle précédemment décrite à l'exception de l'addition à l'homogénat du système inducteur de radicaux : Fe²⁺ - ascorbate. […]"}},
  "data": [
    {"compound": "CCCCN(C(=O)c1cc2cc(O)ccc2n1C)c1ccccc1", "note": "[exemple 17, N-(n-Butyl)-N-phényl-(5-hydroxy-1-méthylindol-2-yl)carboxamide]", "values": [
      {"measurement": "pouvoir protecteur vis-à-vis d'un système oxydant des LDL", "setting": "[1]", "value": "pratiquement total"},
      {"measurement": "minimal effective concentration", "setting": "[2]", "value": 30, "unit": "µM"},
      {"measurement": "inhibition at 10 µM", "setting": "[3]", "value": 51, "unit": "%"},
      {"measurement": "Ratio probucol", "setting": "[4]", "value": 6}
    ]}
  ]
}
